The series is described as follows: solvent given as SMILES.
[1] abbreviates: in c1ccc2c(c1)c1ccccc1n2-c1ccc(-c2ccc(-n3c4ccccc4c4ccccc43)cc2)cc1.

Molecules are shown by their SMILES.

As for `CCC1=C(C)C(=O)n2c1cc1c(c(C)c(C(=O)OC)n1C)c2=O`, the emission maximum by setting is: (in C1CCCCC1) 435 nm; (in CO) 501 nm; (in CS(C)=O) 482 nm; (in ClC(Cl)Cl) 455 nm; (in c1ccccc1) 447 nm.

The molecule `COc1ccc2cc(-c3ccc(-c4cc5ccc(OC)cc5oc4=O)cc3)c(=O)oc2c1` yielded an emission maximum (in ClC(Cl)Cl) of 434 nm.

Consider `CCN(CC)c1ccc(/C=C/C(=O)c2c(O)cc(C)oc2=O)cc1`, for which the emission maximum amounted to 562 nm (in CC#N); 562 nm (in CCCO); 570 nm (in CCO); 545 nm (in CCOC(C)=O); 534 nm (in Cc1ccccc1); 575 nm (in ClCCl).

`CC1=C(c2cccs2)C(C)=[N+]2C1=C(c1ccc(O)cc1)c1c(C)c(-c3cccs3)c(C)n1[B-]2(F)F`: the emission maximum by setting is: (in CO) 602 nm; (in Cc1ccccc1) 604 nm; (in ClCCl) 605 nm.

Regarding `O=C1NC(=O)c2ccc3c4ccc5c6c(ccc(c7ccc1c2c73)c64)C(=O)N(c1ccc(Cl)cc1)C5=O`, the emission maximum (in CN(C)C=O) stood at 536 nm.

With `NS(=O)(=O)c1ccc(N2N=C(c3ccc(O)cc3)CC2c2ccc([N+](=O)[O-])cc2)cc1` (configuration not stated), the emission maximum by setting is: (in C1CCOC1) 420 nm; (in C1COCCO1) 417 nm; (in CC#N) 419 nm; (in CC(C)O) 421 nm; (in CCO) 422 nm; (in CCOC(C)=O) 417 nm. Besides, the emission maximum is, setting by setting: (in CN(C)C=O) 422 nm; (in CO) 434 nm; (in CS(C)=O) 425 nm; (in O) 451 nm.

On to `CCOC(=O)c1c(-c2c(Cl)c3cc(C)ccc3oc2=O)nn(-c2cccc(Cl)c2)c1C(=O)OCC`, for which the emission maximum (in ClCCl) amounted to 420 nm.

As for `CC(C)(C)c1cc2ccc3c(N(c4ccc(F)cc4)c4ccc(F)cc4)cc(N(c4ccc(F)cc4)c4ccc(F)cc4)c4ccc(c1)c2c34`, the emission maximum (in ClCCl) is given as 465 nm.

On to `COc1ccc2nc(/N=N/c3ccc(N(C)C)cc3)sc2c1`, for which the emission maximum reads like this: (in CC#N) 574 nm; (in ClCCl) 572 nm.

Consider `Cc1ccc(-c2c3nc(c(-c4ccc(C)cc4)c4ccc([nH]4)c(-c4ccc(OC(=O)C(C)c5ccc(Oc6ccccc6)cc5)cc4)c4nc(c(-c5ccc(C)cc5)c5ccc2[nH]5)C=C4)C=C3)cc1` (configuration not stated), for which the emission maximum (in ClCCl) amounted to 653 nm.

Turning to `N#Cc1nn(-c2cc(F)cc(F)c2)nc1N1CCCC1`, for the setting “in CC#N”, the emission maximum amounted to 435 nm.

`CC(C)(C)OC(=O)COc1ccc2c(c1)oc(=O)c1c(=O)oc3ccccc3c12`: the emission maximum turned out to be 449 nm (in CS(C)=O) and 440 nm (in ClCCl).

Take `CC1CC=C(c2ccc(-c3cccs3)s2)CC1` (configuration not stated): the emission maximum is 412 nm (in C1CCOC1); 404 nm (in CC#N); 408 nm (in CCCCCC); 411 nm (in CCO); 414 nm (in OCCOCCO); 417 nm (in c1ccncc1).

Regarding `CCOc1ccc2c(-c3nc(-c4ccccc4F)no3)cc(=O)oc2c1`, the emission maximum was 465 nm (in CCO) and 453 nm (in ClC(Cl)Cl).

Molecule `COC(=O)c1c(NC(C)(C)C)oc(-c2ccc(-c3ccccc3)cc2)c1C(=O)OC` gave an emission maximum (in CC#N) of 446 nm.

Take `CCC1=C(C)C2=Cc3c4ccccc4c4n3[B-](c3ccncc3)(Oc3ccccc3-4)[N+]2=C1C` (configuration not stated): the emission maximum (in CC#N) is 633 nm, the emission maximum (in CCCCCC) worked out at 636 nm, the emission maximum (in Cc1ccccc1) is given as 639 nm and the emission maximum (in ClCCl) is given as 639 nm.

With `CCCCCCN1C(=O)C(c2ccc(-c3ccc(-n4c5ccccc5c5ccccc54)cc3)cc2)=C(c2ccc(-c3ccc(-n4c5ccccc5c5ccccc54)cc3)cc2)C1=O`, the emission maximum was determined as 552 nm (in ClC(Cl)Cl) and 580 nm under setting [1].

Turning to `COc1cccc(OC)c1-c1c2ccccc2c(-c2c(OC)cccc2OC)c2ccccc12`, the emission maximum (in C1CCCCC1) turned out to be 425 nm.

On to `COc1ccc(/C=C/C(=O)c2ccccc2O)cc1OC`, for which the emission maximum by setting is: (in C1COCCO1) 425 nm; (in CC#N) 436 nm; (in CCCO) 495 nm; (in CCO) 500 nm; (in CN(C)C=O) 473 nm; (in CO) 510 nm. The emission maximum is 480 nm (in CS(C)=O), 462 nm (in ClC(Cl)Cl) and 460 nm (in ClCCl).

As to `FC(F)(F)c1c(-n2c3ccccc3c3ccccc32)c(-n2c3ccccc3c3ccccc32)cc(-n2c3ccccc3c3ccccc32)c1-n1c2ccccc2c2ccccc21`, the emission maximum (in ClCCl) is 440 nm.

For `CCC1=C(C)C(=O)n2c1cc1c(c(C)c(C(=O)OCC(C)C)n1CC(C)C)c2=O`, the emission maximum is, setting by setting: (in C1CCCCC1) 437 nm; (in CO) 498 nm; (in CS(C)=O) 479 nm; (in ClC(Cl)Cl) 457 nm; (in c1ccccc1) 446 nm.

As for `CN1C(=CC2=C([O-])C(=Cc3sc4ccccc4[n+]3C)C2=C(C#N)C#N)Sc2ccccc21`, where the note is “in ClC(Cl)Cl”, the emission maximum was found to be 723 nm.

In turn, `CCOC(=O)CCCCCn1c2ccc(C)cc2c(=O)c2cc3c(cc21)c(=O)c1cc(C)ccc1n3CCCCCC(=O)OCC` showed an emission maximum (in CO) of 565 nm.

For the molecule `CC1=C(C#Cc2ccccc2)C2=Cc3c(C#Cc4ccccc4)c(C)c(C)n3[B-](F)(F)[N+]2=C1C`, under “in CC#N”, the emission maximum was found to be 579 nm.

Take `CN(C)c1ccc(C2=Nc3scc(-c4ccc([N+](=O)[O-])cc4)[n+]3[B-](F)(F)O2)cc1`: the emission maximum reads like this: (in C1CCOC1) 454 nm; (in CC#N) 453 nm; (in Cc1ccccc1) 447 nm; (in ClCCl) 454 nm.

In turn, `CCCCCCCCOc1ccc2c3c(c4ccc(OCCCCCCCC)cc4c2c1)C(C)(C)c1ccccc1-3` displayed an emission maximum (in C1CCCCC1) of 390 nm.

`C[N+]1=C(/C=C/C2=C3Oc4c(cc5c6c4CCCN6CCC5)C(c4ccccc4C(=O)O)=C3CCC2)C(C)(C)c2ccccc21` yielded an emission maximum (in CC#N) of 760 nm, an emission maximum (in CCO) of 745 nm, an emission maximum (in CO) of 749 nm and an emission maximum (in ClC(Cl)Cl) of 757 nm.

Molecule `CCOC(=O)c1cc(C(=O)OCC)c2cc(OC)ccc2n1` registered an emission maximum (in CCO) of 441 nm.

`CCN(CC)c1ccc(/C=N/c2ccccc2/N=C/c2ccc(N(CC)CC)cc2O)c(O)c1` displayed an emission maximum (in CC#N) of 502 nm, an emission maximum (in CN(C)C=O) of 573 nm and an emission maximum (in ClCCl) of 535 nm.

In turn, `COc1ccc(N2C(=O)c3ccccc3NC2C(C)(C)C)cc1` (configuration not stated) had an emission maximum (in CC#N) of 413 nm, an emission maximum (in CO) of 444 nm, an emission maximum (in ClC(Cl)Cl) of 410 nm and an emission maximum (in c1ccccc1) of 400 nm.

As to `O=P1(c2ccccc2)c2ccc(N3c4ccccc4Oc4ccccc43)cc2-c2cc(N3c4ccccc4Oc4ccccc43)ccc21`, the emission maximum is listed as 535 nm (in Cc1ccccc1) and 551 nm under setting [1].

For the origin of these results see the Deep4Chem optical property database.
